Source: patent US7498403B2, “Peptides capable of binding to titanium silver silicone” (Japan Science and Technology Agency, priority 2003, dated 2009)

What was measured:
[1] = Adsorption of synthetic peptide to silicon particles, Langmuir adsorption isotherm fitting; type: binding; settings: Si
Experimental: (§1) In order to confirm whether the synthetic peptide comprising an amino acid sequence shown in SEQ ID NO: 3 binds to titanium surface, the binding ability of the synthetic peptides comprising an amino acid sequence shown in SEQ ID NO: 3 to titanium particles was examined. 10 mg of titanium particles used in Example 1 was put into an Eppendorf tube, washed twice with 50 mM HEPES-NaOH, 150 mM NaCl. Then, 100 μl of 5 to 40 μM of the synthetic peptides of SEQ ID NO: 3, and the mixture was stirred by rotating by using a rotary shaker rotator RT-50 (Taitec) at room temperature for 2 hours. By centrifuging with a desk-top centrifuge H-1300 (Kokusan, Tokyo), at 13,000 rpm, for 5 sec., the supernatant was removed, mixed with fluoro aldehyde (Pias Rockford, Ill.), and by using a spectrofluorometer (Nippon Bunko, Tokyo), at excitation wave length 342 nm, fluorescent wave length 437 nm, the binding level to titanium was calculated from the peptide concentration of the supernatant. The relative surface area of titanium was calculated from the density and mean particle diameter. Further, the binding ability of the synthetic peptide comprising an amino acid sequence shown in SEQ ID NO: 2 to silicone/tin used in Example 13 was examined by the same method. […]

[2] = Binding ability of phage clones to silver particles; settings: peptide expressed on phage clone
Experimental: (§2) By using the phage clone obtained in Example 1, the binding ability to titanium was evaluated by the following experiment. The same method as for panning operation shown in Example 1 was performed. The difference between Example 1 is that the stirring time of titanium and phage clone was 1 hour; the Tween 20 concentration and BSA concentration in each solution was 0.5%, and 1%, respectively, and that the titer of the phage added was 10^9 pfu for clone from D12, and 10^11 pfu for clone from C7C.
(§3) To investigate the binding specificity of phage clone expressing a peptide comprising an amino acid sequence shown in SEQ ID NO: 3 to metal material, to 10 mg each of gold (purity>99.9%, particle diameter<150 μm)/silver (purity>99.9%, particle diameter<75 μm)/copper (purity>99%, particle diameter 75-150 μm)/platinum (purity>99.9%, particle diameter<75 μm)/iron (purity>99.9%, particle diameter<150 μm)/tin (purity>99.9%, particle diameter<150 μm)/zinc (purity>99.9%, particle diameter<150 μm)/chrome (purity>98%, particle diameter>10 μm)/cobalt (purity>99%, particle diameter<75 μm)/silicon (purity>99%, particle diameter<150 μm) (Kojundo Chemical Lab., Saitama), the binding ability to each metal was examined by the same method of Example 2, by using 10^10 pfu/ml of phage clone expressing a peptide comprising an amino acid sequence shown in SEQ ID NO: 3.
(§4) In order to confirm whether the binding form to silver or silicone, and the sequence specificity of the phage clone expressing a peptide comprising an amino acid sequence shown in SEQ ID NO: 3 is similar as in the case of binding to titanium, the binding ability of the alanine substituted-mutant phage of SEQ ID NOs: 4, 5, 7, 8 used in Example 4 to silver/silicon was examined by the method shown in Example 2.

[3] = Binding ability of phage clones to titanium particles (eluted phage titer / added phage titer); settings: peptide expressed on phage clone; for binding ability to titanium: titanium particles, mutants compared with SEQ ID NO: 3 clone
Experimental: 10 mg of titanium particle with a particle diameter of […] (Sumitomo Titanium Corporation, Hyogo) was put into a 1.5 ml-Eppendorf tube, and washed twice with a solution of 500 μl of 50 mM tris (hydroxymethyl) aminomethane (herein after referred to as tris (Kishida Chemical (Osaka)) HCl buffer pH 7.5; 150 mM of sodium chloride (Wako Pure Chemicals, Osaka) solution (herein after referred to as TBS) supplemented with 0.1% bovine serum albumin (herein after referred to as BSA), 0.1% Polyoxyethylenesorbitan monolaurate (herein after referred as Tween-20 (Sigma, St. Louis)). Washing of titanium particles was performed by centrifuging with a desktop centrifuge H1300 (Kokusan) at 13,000 rpm, 5 sec, to precipitate titanium particles and to remove supernatant. After washing, in order to block the non-specific adsorption of the phage, the mixture was stirred by rotating with 1 ml of the same solution for 30 min at room temperature by using a rotary shaker rotator RT-50 (Taitec).
By centrifuging with a desktop centrifuge H1300 (Kokusan) at 13,000 rpm, 5 sec, titanium particles were precipitated, the supernatant was removed, and then 1 ml TBS containing peptide-expressing phage library, D12 library expressing linear random peptide of 12 residues (New England Biolabs, Beverly), 17×10^11 plaque-forming unit (herein after referred to as pfu), or C7C library expressing cyclic randam peptide of 7 residues (New Engand Biolabs) 2.0×10^11 pfu, 0.1% BSA and 0.1% Tween-20 solution were added, and stirred by rotating for 2 hours, at room temperature with a rotary shaker, rotator RT-50.
By centrifuging with a desktop centrifuge H1300 (Kokusan) at 13,000 rpm, 5 sec, the supernatant was removed, and the resultant was washed 10 times with 1 ml of TBS, 0.1% Tween-20 solution. Washing was performed by centrifuging at 8000×g, 5 sec, by precipitating titanium particles. After removing washing solution, 1 ml of 0.2 M glycine (Wako Pure Chemicals), HCl buffer pH 2.2 were added and stirred by rotating for 10 min at room temperature with rotator RT-50 (Taitec) to elute phage bound to titanium. Titanium was precipitated by centrifugation, and the supernatant was moved to a separate 1.5 ml-Eppendorf tube. Then, 150 μl of 1M tris/HCl buffer pH 9.1 was added to neutralize, and phage titer in the solution (plaque forming ability per unit solution) was measured according to a common procedure (Molecular Cloning Third Edition, Cold Spring Harbor Laboratory Press).
as §2
For clone strongly bound particularly with titanium (SEQ ID NO: 3) in Example 2, point mutants substituted by alanine having only one methyl group in the side chain was prepared and the change of binding ability to titanium was examined for each mutant phage. As point mutant comprises alanine in the 6th position in the expressed sequence, mutants were prepared for all the residues except the 6th residue. The preparation of point mutants was performed by Kunkel method (Molecular Cloning Third Edition, Cold Spring Harbor Laboratory Press). Synthetic DNAs used for preparing point mutants are shown in FIG. 8 (SEQ ID NOs: 40 to 50). The introduction of point mutation was confirmed by determining the DNA sequence of phage DNA. DNA sequencing was performed in the same manner as Example 1. The binding ability to titanium of the obtained point mutants was measured by the method shown in Example 2, by adjusting the phage amount added to 10^10 pfu.
The deletion mutants were prepared by the method shown schematically in FIG. 10. […]

[4] = Binding ability of phage clones to silicon particles; settings: peptide expressed on phage clone
Experimental: as §2, §3, §4

[5] = QCM-D300 quartz crystal microbalance analysis of phage binding to titanium sensor; settings: phage clone; frequency and dissipation (viscoelasticity), sensor blocked with BSA
Experimental: As for the clone strongly bound particularly with titanium (expressing peptide of SEQ ID NO: 3), the binding form of titanium surface and phage was examined, by measuring with QCM-D300 (Q-sense AB, Goeteborg), which is a device for quantification of interaction with a quartz crystal microbalance.
For a quartz crystal microbalance, titanium sensor being a genuine part of QCM-D300 was used. The temperature was fixed at 24.99° C., and the actual measurement value was from around 24.68° C. to 24.70° C. It was measured in a condition of blocking the sensor with BSA, and in a condition without blocking. When blocking with BSA is not performed, after measuring the standard value with TBS, the phage solution adjusted so that the phage titer becomes 10^10 pfu/ml was measured continuously. When blocking with BSA is performed, after measuring the standard value with TBS, blocking was conducted by incubating for about 10 min with TBS, 0.1% BSA, and after washing again migrated BSA with TBS, the phage solution adjusted so that the phage titer becomes 10^11 pfu/ml was measured continuously.
From the results shown in FIG. 6, it is clear that the phage clone is bound to the sensor from the change of frequency, under the absence of BSA. […]

[6] = Binding ability of phage clone to copper particles; settings: peptide expressed on phage clone
Experimental: as §2, §3

[7] = Adsorption of synthetic peptide to titanium particles, Langmuir adsorption isotherm fitting; type: binding; settings: Ti
Experimental: as §1

[8] = Binding ability of phage clone to iron particles; settings: peptide expressed on phage clone
Experimental: as §2, §3

| Substance | binding ability to silver [2] | binding ability to titanium [3] | binding ability to silicon [4] | also measured |
| --- | --- | --- | --- | --- |
| RALPDA [SEQ ID NO: 2] | binds | binds | binds | qm (maximum adsorption level) [1]: 2.1 ± 0.3 × 10^−7 mole/m^2; Kd ([1]; read-out: Kd (dissociation constant)): 13.2 ± 4 µM |
| RKLPDA [SEQ ID NO: 1] |  | not affected by the deletion |  |  |
| RKLPDAPGMHTW [SEQ ID NO: 3, tested on phage clone and as synthetic peptide] |  | much higher |  | binding form of phage to titanium surface [5]: bound perpendicularly to titanium surface; binding to copper [6]: below the detection limit; Kd ([7]; synthetic peptide 5 to 40 μM, 50 mM HEPES-NaOH, 150 mM NaCl, room temperature, 2 hours, read-out: Kd (dissociation constant)): 11.1 ± 2.8 µM; qm (maximum adsorption level) ([7]; synthetic peptide, Langmuir fitting): 2.5 ± 0.3 × 10^−6 mole/m^2; binding ability to titanium treated with hydrogen peroxide ([3]; titanium particles treated with 3% hydrogen peroxide for 1 hour): increased; binding to iron [8]: below the detection limit |
| SEQ ID NO: 4: e3-2-3 mutant, 1st amino acid residue substituted by Ala (AKLPDAPGMHTW) | same trend as for titanium | significantly impaired | same trend as for titanium |  |
| SEQ ID NO: 5: e3-2-3 mutant, 2nd amino acid residue substituted by Ala (RALPDAPGMHTW) | same trend as for titanium | increased | same trend as for titanium |  |
| SEQ ID NO: 7: e3-2-3 mutant, 4th amino acid residue substituted by Ala (RKLADAPGMHTW) | same trend as for titanium | the most significantly impaired | same trend as for titanium |  |
| SEQ ID NO: 8: e3-2-3 mutant, 5th amino acid residue substituted by Ala (RKLPAAPGMHTW) | same trend as for titanium | significantly impaired | same trend as for titanium |  |
| SEQ ID NO: 15: Ala is added/inserted to N terminal of e-3-2-3 (ARKLPDAPGMHTW) |  | increase of the binding ability |  |  |
